With `CCCCc1nc(-c2ccc(N3CCN(C(=O)c4ccccc4C(F)(F)F)CC3)nn2)no1` [Example 4.1, {4-[6-(5-butyl[1,2,4]oxadiazol-3-yl)pyridazin-3-yl]piperazin-1-yl}-(2-trifluoromethylphenyl)methanone], the melting point (commonly the temperature of the solid-liquid transition) is 175 °C.

`CCCCCc1noc(-c2ccc(N3CCN(C(=O)c4ccccc4C(F)(F)F)CC3)nn2)n1` [Example 7.1, {4-[6-(3-pentyl[1,2,4]oxadiazol-5-yl)pyridazin-3-yl]piperazin-1-yl}-(2-trifluoromethylphenyl)methanone]: the melting point stood at 164 °C.

Turning to `CCc1nc(-c2ccc(N3CCN(C(=O)c4ccccc4C(F)(F)F)CC3)nn2)no1` [Example 4, {4-[6-(5-ethyl-[1,2,4]oxadiazol-3-yl)pyridazin-3-yl]piperazin-1-yl}-(2-trifluoromethylphenyl)methanone], the melting point is 204 °C.

Molecule `CCCc1noc(-c2ccc(N3CCN(C(=O)c4ccccc4C(F)(F)F)CC3)nn2)n1` [Example 7, {4-[6-(3-propyl[1,2,4]oxadiazol-5-yl)pyridazin-3-YL]piperazin-1-yl}-(2-trifluoromethylphenyl)methanone] registered a melting point of 226 °C.

`O=C(c1cc(F)ccc1C(F)(F)F)N1CCN(c2ccc(-c3ncc(-c4ccccc4)o3)nn2)CC1` [Example 12, (5-fluoro-2-trifluoromethylphenyl)-{4-[6-(5-phenyloxazol-2-yl)pyridazin-3-yl]piperazin-1-yl}methanone] gave a melting point of 122 to 125 °C.

Source of the values: US7767677B2, “Heterocyclic derivatives and their use as stearoyl-CoA desaturase inhibitors” (Xenon Pharmaceuticals Inc., priority 2004, dated 2010).
